SMILES strings stand for the structures. Several values for one entry are separate records, joined by “and”; a condition that tells them apart may be missing. Equal entries are not always repeated. Where two headings read alike, the source gives them in different places.

One assay deals with Human topoisomerase IIα (Homo sapiens, UniProt P11388). The assay is described as follows: Human topoisomerase IIα residual activity. In kind it is biochemical. Particulars: read-out: Human topoisomerase IIα (%RA).
For a further assay, the target named is T1, S. aureus topoIV (Staphylococcus aureus, UniProt Q2FYS4).
T1 construct: purchased Inspiralis (Norwich, UK)
The experiment in a line: TopoIV decatenation inhibition assay (S. aureus). In kind it is biochemical. Particulars: read-out: IC50 TopoIV S. aureus, mean of two independent measurements ± SD.

Assay [1] concerns Salmonella alachua RDK 030c (QA-1482/04). The experiment in a line: microbe, parasite or virus in culture. As for the experimental part: (§1) The in vitro antibacterial activity, expressed as minimum inhibitory concentration (MIC), was determined against broad spectrum of bacteria, including Gram-positive (Staphylococcus aureus, methicillin-resistant Staphylococcus aureus, Streptococcus agalactiae, and Enterococcus faecalis) and Gram-negative strains (Escherichia coli, Salmonella alachua, Pseudomonas aeruginosa, and Klebsiella pneumoniae), enriched with various MRSA strains resistant to various antibiotics as well as E. coli strains with increased membrane permeability and lack of efflux pump, as well. […]
(§2) The minimum inhibitory concentrations (MICs) were determined using the broth micro-dilution method in 96-well plate format according to the Clinical and Laboratory Standards Institute […]
(§3) guidelines8 and European Committee on Antimicrobial Susceptibility Testing recommendations9. The bacterial suspension of the specific bacterial strain equivalent to the 0.5 McFarland turbidity standard was diluted with cation-adapted Mueller Hinton broth with TES (Thermo Fisher Scientific) to obtain a […]
(§4) The compounds dissolved in DMSO and inoculum were mixed together and incubated for 20 h at 35 °C.

The test system of assay [2] is Pseudomonas aeruginosa RDK 184 (DSM 939). The experiment in a line: microbe, parasite or virus in culture. As for the experimental part: as §1, §2, §3, §4
Assay [3] concerns E. coli N43 (CGSC no. 5583). The experiment in a line: microbe, parasite or virus in culture. Particulars: Escherichia coli. As for the experimental part:
as §1, §2, §3, §4

The next assay deals with MRSA (QA-12.1). The assay is described as follows: microbe, parasite or virus in culture. The conditions noted are these: Staphylococcus aureus, read-out: MIC MRSA (QA-12.1). As for the experimental part: as §1, §2, §3, §4
The test system of a further assay is MRSA (QA-11.7). The experiment in a line: microbe, parasite or virus in culture. The conditions noted are these: Staphylococcus aureus, read-out: MIC MRSA (QA-11.7). As for the experimental part: as §1, §2, §3, §4
The next assay relates to E. coli (ATCC 25922). The experiment in a line: microbe, parasite or virus in culture. Particulars: Escherichia coli, ATCC25922, read-out: MIC E. coli (ATCC 25922). As for the experimental part: as §1, §2, §3, §4
Assay [4] has as its system Enterococcus faecalis DRK 057 (ATCC 29212). The assay is described as follows: microbe, parasite or virus in culture. As for the experimental part: as §1, §2, §3, §4
For assay [5], the system named is Streptococcus agalactiae RDK 047 (QA-990/02). The experiment in a line: microbe, parasite or virus in culture. As for the experimental part: as §1, §2, §3, §4
In another assay the test system is S. aureus (ATCC 29213). The assay is described as follows: microbe, parasite or virus in culture. The conditions noted are these: Staphylococcus aureus, ATCC29213, read-out: MIC S. aureus (ATCC 29213). As for the experimental part: as §1, §2, §3, §4
Another assay has as its system Klebsiella pneumoniae. The experiment in a line: microbe, parasite or virus in culture. As for the experimental part:
as §1, §2, §3, §4

The next assay relates to E. coli D22. The assay is described as follows: microbe, parasite or virus in culture. Particulars: Escherichia coli. As for the experimental part:
as §1, §2, §3, §4

For the next assay, the target named is T2, S. aureus DNA gyrase (Staphylococcus aureus, UniProt P20831).
T2 construct: purchased Inspiralis (Norwich, UK)
The experiment in a line: DNA gyrase supercoiling inhibition assay (S. aureus). In kind it is biochemical. Particulars: mean of two independent measurements ± SD. As for the experimental part: We synthesized and biologically evaluated ten new compounds. We determined their inhibitory activity, expressed as IC50 values, on both Gram-positive S. aureus and Gram-negative E. coli bacterial enzymes (DNA gyrase and topo IV), respectively. The in vitro antibacterial activity, expressed as minimum inhibitory concentration (MIC), was determined against broad spectrum of bacteria, including Gram-positive (Staphylococcus aureus, methicillin-resistant Staphylococcus aureus, Streptococcus agalactiae, and Enterococcus faecalis) and Gram-negative strains (Escherichia coli, Salmonella alachua, Pseudomonas aeruginosa, and Klebsiella pneumoniae), enriched with various MRSA strains resistant to various antibiotics as well as E. coli strains with increased membrane permeability and lack of efflux pump, as well. Furthermore, the selectivity of compounds for bacterial enzyme compared to the orthologous human topoisomerase IIα was also considered. The in vitro safety profile was determined by cytotoxicity assessment on human umbilical vein endothelial cell lines (HUVEC) and HepG2 liver cancer cell lines.
Determination of DNA gyrase and topoisomerase IV inhibitory activities
To determine the IC50 values of the compounds, a Gyrase Supercoiling High Throughput Plate assay kit and a TopoIV Relaxation High Throughput Plate assay kit, commercially available from Inspiralis (Norwich, UK), were used for S. aureus and E. coli. The assays were performed on black streptavidin-coated 96-well microtiter plates (Thermo Scientific Pierce, Norwich, UK) and the wells were first […]
BSA and 0.05% [v/v] Tween-20). Biotinylated oligonucleotide diluted with the wash buffer was then immobilized in each well and the excess was removed with the wash buffer. 1.5 U of the enzyme S. aureus or E. coli DNA gyrase (topoIV) was incubated together with 0.75 μg of relaxed (supercoiled) pNO1 plasmid as substrate in the presence of 3 μl inhibitor solution in 10% DMSO and 0.008% Tween-20 at 37°C for 30 min in a final reaction volume of 30 μl in the assay buffer (S. aureus DNA gyrase: 40 mM HEPES.KOH (pH 7.6), 10 mM magnesium acetate, 10 mM DTT, 2 mM ATP, 500 mM potassium glutamate and 0.05 mg/ml albumin; E. coli DNA gyrase: 35 mM Tris.HCl (pH 7.5), 24 […]
mg/ml albumin; S. aureus topo IV: 50 mM Tris.HCl (7.5), 5 mM MgCl 2, 5 mM DTT, 1.5 mM ATP, 350 mM potassium glutamate and 0.05 mg/ml albumin; E. coli topo IV: 40 mM HEPES.KOH (pH 7.6), 100 mM potassium glutamate, 10 mM magnesium acetate, 10 mM DTT, 1 mM ATP and 50 μg/ml albumin). The reaction was stopped by adding the TF buffer (50 mM NaOAc (pH 4.7), 50 mM NaCl and 50 mM MgCl2) to allow triplex formation (biotin oligonucleotide plasmid) for another 30 min. Finally, the unbound plasmid was washed off using the TF buffer and the Promega Diamond dye was added to T10 buffer (10 mM Tris-HCl (pH 8.0), 1 mM EDTA) solution. After 15 min the solution […]
Two inhibitor concentrations of 100 and 1 μM were used for pre-screening. The IC 50 values […]
(IC50) was calculated by nonlinear regression-based fitting of the inhibition curves using the log [inhibitor] versus response-variable slope (four parameters) – symmetrical equation, in GraphPad Prism 6.0 software (GraphPad Software, CA, USA). The IC50 value represents the average of two independent measurements.
The minimum inhibitory concentrations (MICs) were determined using the broth micro-dilution method in 96-well plate format according to the Clinical and Laboratory Standards Institute

T1 sequence (Q2FYS4 whole entry, looked up): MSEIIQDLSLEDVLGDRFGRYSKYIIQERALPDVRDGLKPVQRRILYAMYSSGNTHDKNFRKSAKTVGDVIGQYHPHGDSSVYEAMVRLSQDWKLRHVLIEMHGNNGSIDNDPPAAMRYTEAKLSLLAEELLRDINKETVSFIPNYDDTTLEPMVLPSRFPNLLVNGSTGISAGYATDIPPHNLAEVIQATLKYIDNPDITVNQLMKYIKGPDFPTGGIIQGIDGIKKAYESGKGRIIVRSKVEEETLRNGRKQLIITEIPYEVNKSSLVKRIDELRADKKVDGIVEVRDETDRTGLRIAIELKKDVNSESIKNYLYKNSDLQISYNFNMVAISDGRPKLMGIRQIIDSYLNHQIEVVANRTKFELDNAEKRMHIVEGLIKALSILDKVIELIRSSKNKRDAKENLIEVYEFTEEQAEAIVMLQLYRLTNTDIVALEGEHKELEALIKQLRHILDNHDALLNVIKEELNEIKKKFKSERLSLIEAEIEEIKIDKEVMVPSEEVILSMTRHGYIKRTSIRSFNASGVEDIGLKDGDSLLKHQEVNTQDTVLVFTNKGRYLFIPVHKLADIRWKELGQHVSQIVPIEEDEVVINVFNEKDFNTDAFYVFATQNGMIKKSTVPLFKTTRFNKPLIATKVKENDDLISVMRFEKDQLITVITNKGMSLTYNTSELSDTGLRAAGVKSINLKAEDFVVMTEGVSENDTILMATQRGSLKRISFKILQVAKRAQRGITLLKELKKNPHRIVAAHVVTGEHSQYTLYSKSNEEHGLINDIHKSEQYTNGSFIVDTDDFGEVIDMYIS
T2 sequence (P20831 whole entry, looked up): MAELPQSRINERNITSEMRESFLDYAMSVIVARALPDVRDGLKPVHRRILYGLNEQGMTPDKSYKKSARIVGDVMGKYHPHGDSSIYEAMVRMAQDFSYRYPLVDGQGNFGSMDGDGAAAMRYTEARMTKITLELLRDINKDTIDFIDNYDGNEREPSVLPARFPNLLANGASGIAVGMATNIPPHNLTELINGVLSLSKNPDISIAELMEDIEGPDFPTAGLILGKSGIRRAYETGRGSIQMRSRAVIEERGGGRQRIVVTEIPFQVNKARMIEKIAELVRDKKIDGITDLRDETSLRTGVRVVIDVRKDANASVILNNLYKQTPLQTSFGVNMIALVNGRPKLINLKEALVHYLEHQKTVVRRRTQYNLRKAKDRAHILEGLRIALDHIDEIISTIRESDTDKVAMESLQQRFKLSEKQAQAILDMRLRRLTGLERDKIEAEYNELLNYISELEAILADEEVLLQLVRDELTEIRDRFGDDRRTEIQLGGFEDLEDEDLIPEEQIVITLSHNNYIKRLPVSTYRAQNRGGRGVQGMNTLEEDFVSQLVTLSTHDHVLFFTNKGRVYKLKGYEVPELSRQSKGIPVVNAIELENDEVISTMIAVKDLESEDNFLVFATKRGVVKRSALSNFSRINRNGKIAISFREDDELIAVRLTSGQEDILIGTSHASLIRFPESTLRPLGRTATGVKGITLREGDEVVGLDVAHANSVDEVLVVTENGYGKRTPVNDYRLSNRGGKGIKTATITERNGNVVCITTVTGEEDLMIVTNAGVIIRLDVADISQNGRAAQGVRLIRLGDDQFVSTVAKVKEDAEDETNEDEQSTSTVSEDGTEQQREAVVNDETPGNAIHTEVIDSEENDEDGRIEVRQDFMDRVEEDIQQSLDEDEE
Chain of Human topoisomerase IIα (P11388 whole entry): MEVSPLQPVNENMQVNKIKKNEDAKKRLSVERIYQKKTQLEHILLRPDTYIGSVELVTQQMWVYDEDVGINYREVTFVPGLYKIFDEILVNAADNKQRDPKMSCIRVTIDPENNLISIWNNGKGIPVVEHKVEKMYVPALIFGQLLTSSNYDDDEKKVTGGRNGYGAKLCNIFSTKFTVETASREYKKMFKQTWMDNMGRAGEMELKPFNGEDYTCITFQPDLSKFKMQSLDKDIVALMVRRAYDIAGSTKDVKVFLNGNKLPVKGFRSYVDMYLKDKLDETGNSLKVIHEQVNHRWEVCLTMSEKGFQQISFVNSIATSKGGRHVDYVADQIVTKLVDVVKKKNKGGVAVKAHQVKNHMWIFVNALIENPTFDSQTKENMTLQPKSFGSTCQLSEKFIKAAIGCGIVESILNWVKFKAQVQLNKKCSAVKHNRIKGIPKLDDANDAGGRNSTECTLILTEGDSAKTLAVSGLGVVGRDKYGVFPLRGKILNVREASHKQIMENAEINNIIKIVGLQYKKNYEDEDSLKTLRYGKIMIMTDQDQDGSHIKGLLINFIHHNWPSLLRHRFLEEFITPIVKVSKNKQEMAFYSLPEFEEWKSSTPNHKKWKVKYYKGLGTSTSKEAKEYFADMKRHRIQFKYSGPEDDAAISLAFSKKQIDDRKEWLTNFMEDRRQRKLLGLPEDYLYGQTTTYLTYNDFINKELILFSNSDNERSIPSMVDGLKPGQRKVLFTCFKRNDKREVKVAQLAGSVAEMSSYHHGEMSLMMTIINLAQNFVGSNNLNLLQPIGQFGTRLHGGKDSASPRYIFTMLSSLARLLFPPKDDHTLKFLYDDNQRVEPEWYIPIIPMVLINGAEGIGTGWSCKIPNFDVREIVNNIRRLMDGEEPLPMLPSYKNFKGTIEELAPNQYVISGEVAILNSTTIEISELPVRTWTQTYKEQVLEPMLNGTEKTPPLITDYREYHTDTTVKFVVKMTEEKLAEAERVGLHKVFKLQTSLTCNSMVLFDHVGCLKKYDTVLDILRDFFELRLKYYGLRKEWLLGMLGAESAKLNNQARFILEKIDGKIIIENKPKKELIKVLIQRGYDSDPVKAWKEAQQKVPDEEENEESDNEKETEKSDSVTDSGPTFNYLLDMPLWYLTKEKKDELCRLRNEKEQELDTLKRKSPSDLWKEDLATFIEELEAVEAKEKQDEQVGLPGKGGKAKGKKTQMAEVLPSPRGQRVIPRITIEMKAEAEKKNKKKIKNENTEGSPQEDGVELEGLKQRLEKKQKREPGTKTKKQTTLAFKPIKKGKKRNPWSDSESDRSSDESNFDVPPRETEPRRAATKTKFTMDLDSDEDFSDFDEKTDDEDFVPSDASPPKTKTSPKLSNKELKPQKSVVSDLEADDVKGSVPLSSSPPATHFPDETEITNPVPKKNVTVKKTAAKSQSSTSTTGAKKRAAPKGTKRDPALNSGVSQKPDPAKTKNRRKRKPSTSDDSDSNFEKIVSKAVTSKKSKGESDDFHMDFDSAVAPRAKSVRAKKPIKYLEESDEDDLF

For `COc1ccc2nccc(CCN3CCC(NCc4ccc(I)c(F)c4)CC3)c2n1` [Compound 6], the remaining activity at 10 µM on Human topoisomerase IIα amounted to 97.7 ± 1.31%. Besides, the IC50 was 90 ± 102 nM at S. aureus topoIV and 4 nM against S. aureus DNA gyrase. In addition, the MIC in assay [1] (read-out: MIC S. alachua RDK 030c (QA-1482/04)) was 3.84 µM; in assay [1] (read-out: MIC Salmonella alachua RDK 030c (QA-1482/04)), 2 µg/mL; in assay [2] (DSM939, read-out: MIC P. aeruginosa RDK 184 (DSM 939)), 30.7 µM; in [2] (DSM939, read-out: MIC Pseudomonas aeruginosa RDK 184 (DSM 939)), 16 µg/mL; in assay [3] (read-out: MIC E. coli N43 (CGSC no. 5583)) it was 0.016 µg/mL; in [3] (read-out: MIC E. coli N43 (CGSC# 5583)) it was 0.031 µM. The MIC with MRSA (QA-12.1) was 0.031 µM and 0.016 µg/mL; in the assay with MRSA (QA-11.7) it was 0.031 µM and 0.016 µg/mL; in the assay on E. coli (ATCC 25922), 0.961 µM and 0.5 µg/mL; in assay [4] (ATCC29212, read-out: MIC E. faecalis DRK 057 (ATCC 29212)), 0.48 µM; in assay [4] (ATCC29212, read-out: MIC Enterococcus faecalis DRK 057 (ATCC 29212)), 0.25 µg/mL; in assay [5] (read-out: MIC S. agalactiae RDK 047 (QA-990/02)), 0.48 µM. In addition, the MIC in assay [5] (read-out: MIC Streptococcus agalactiae RDK 047 (QA-990/02)) was 0.25 µg/mL; with S. aureus (ATCC 29213) it was 0.015 µM and 0.008 µg/mL; with Klebsiella pneumoniae (read-out: MIC K. pneumoniae) it was 15.4 µM; with Klebsiella pneumoniae (read-out: MIC Klebsiella pneumoniae) it was 8 µg/mL; with E. coli D22 (D22, read-out: MIC E. coli D2), 0.119 µM; in the assay on E. coli D22 (D22, read-out: MIC E. coli D22) it was 0.062 µg/mL.

(Values after paper PMC8436411 (ACS Medicinal Chemistry Letters, 2021).)
